Test results from ChEMBL document CHEMBL1201862, “PubChem BioAssay data set” (2004).
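Each compound was tested at five concentrations against cells in 96-well plates for 48 hours. Abbreviation: GI50, concentration required for 50% inhibition of growth.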 The source made the active and inactive calls. No stated cut-off is given here; in the data, active = GI50 up to about 1.1 µM and inactive = higher.

Legend:
Assay in all cases: growth of human tumour cells (NCI), 48 h
786-0 = test system: 786-0
A498 = test system: A498
A549 = test system: A549
ACHN = test system: ACHN
BT-549 = test system: BT-549
EKVX = test system: EKVX
HCC 2998 = test system: HCC 2998
HCT-116 = test system: HCT-116
HCT-15 = test system: HCT-15
HOP-62 = test system: HOP-62
K562 = test system: K562
KM12 = test system: KM12
LOX IMVI = test system: LOX IMVI
MDA-N = test system: MDA-N
MOLT-4 = test system: MOLT-4
NCI-H460 = test system: NCI-H460
PC-3 = test system: PC-3
SK-OV-3 = test system: SK-OV-3
T47D = test system: T47D
UO-31 = test system: UO-31

Compound | GI50 (786-0) | GI50 (A498) | GI50 (A549) | GI50 (ACHN) | GI50 (BT-549) | GI50 (EKVX) | GI50 (HCC 2998) | GI50 (HCT-116) | GI50 (HCT-15) [µM] | GI50 (HOP-62) | GI50 (K562) | GI50 (KM12) | GI50 (LOX IMVI) | GI50 (MDA-N) | GI50 (MOLT-4) | GI50 (NCI-H460) | GI50 (PC-3) | GI50 (SK-OV-3) | GI50 (T47D) | GI50 (UO-31)
OCCCCCNc1cc(O)nc(O)n1 | > 100 µM (inactive) | > 100 µM (inactive) | > 100 µM (inactive) | > 100 µM (inactive) | > 100 µM (inactive) | > 100 µM (inactive) | > 100 µM (inactive) | > 100 µM (inactive) | > 100 | > 100 µM (inactive) | > 100 µM (inactive) | > 100 µM (inactive) | > 100 µM (inactive) | > 100 µM (inactive) | > 100 µM (inactive) | > 100 µM (inactive) | > 100 µM (inactive) | > 100 µM (inactive) | > 100 µM (inactive) | > 100 µM (inactive)
N/C(=N\O)N/N=C/c1cc(Br)cc(Br)c1O | 1.91 µM (inactive) | 3.96 µM (inactive) | 5.27 µM (inactive) | 1.95 µM (inactive) | 2.44 µM (inactive) | 14.9 µM (inactive) | 6.53 µM (inactive) | 4.24 µM (inactive) | 0.67 | 4.21 µM (inactive) | 2.65 µM (inactive) | 5.08 µM (inactive) | 2.35 µM (inactive) | 10.8 µM (inactive) | 1.12 µM (active) | 3.32 µM (inactive) | 5.74 µM (inactive) | 7.14 µM (inactive) | 1.75 µM (inactive) | 1.92 µM (inactive)
COc1cc2c3c(c1OC)-c1cc4c(cc1CC3(C#N)N(C(=O)c1ccccc1)CC2)OCO4 (stereo not given) | 29.1 µM (inactive) | 41.1 µM (inactive) | 37.5 µM (inactive) | 40.4 µM (inactive) | > 100 µM (inactive) | 45.8 µM (inactive) | > 100 µM (inactive) | 31.9 µM (inactive) | > 100 | 42.1 µM (inactive) | 73.5 µM (inactive) | > 75.5 µM (inactive) | > 56.8 µM (inactive) | > 100 µM (inactive) | 68.4 µM (inactive) | 52.6 µM (inactive) | > 76.4 µM (inactive) | 25.7 µM (inactive) | > 100 µM (inactive) | 51.2 µM (inactive)
COC(=O)c1sc2c(c1C(=O)OC)/C(=N/C(C)(C)C)S/C2=N\C(C)(C)C | 15 µM (inactive) | 17.8 µM (inactive) | 17.4 µM (inactive) | 18.7 µM (inactive) | 19 µM (inactive) | 16.3 µM (inactive) | 14.8 µM (inactive) | 15.6 µM (inactive) | 17.2 | 19.6 µM (inactive) | 18.5 µM (inactive) | 16.3 µM (inactive) | 19.5 µM (inactive) | 17.9 µM (inactive) | 15.1 µM (inactive) | 18.5 µM (inactive) | 19.1 µM (inactive) | 25.4 µM (inactive) | 12.2 µM (inactive) | 0.14 µM (active)
Cc1c2c(C(N)=O)nccc2c(C)c2c1c1ccccc1n2Cc1ccccc1 | 3.86 µM (inactive) | 21 µM (inactive) | 14.8 µM (inactive) | 16.3 µM (inactive) | 29.3 µM (inactive) | 43.6 µM (inactive) | 26.4 µM (inactive) | 10 µM (inactive) | 16 | 6.38 µM (inactive) | 22.7 µM (inactive) | 21.6 µM (inactive) | 4.41 µM (inactive) | 29 µM (inactive) | 32.7 µM (inactive) | 11.6 µM (inactive) | 13 µM (inactive) | 22.9 µM (inactive) | 29.2 µM (inactive) | 16.4 µM (inactive)
CCOC(=O)Cc1nc2c(O)ncnc2n1C1OC(COC(C)=O)C(OC(C)=O)C1OC(C)=O (stereo not given) | > 100 µM (inactive) | > 100 µM (inactive) | > 100 µM (inactive) | > 100 µM (inactive) | > 100 µM (inactive) | > 100 µM (inactive) | > 100 µM (inactive) | > 100 µM (inactive) | > 100 | > 100 µM (inactive) | > 100 µM (inactive) | > 100 µM (inactive) | > 100 µM (inactive) | > 100 µM (inactive) | > 100 µM (inactive) | > 100 µM (inactive) | > 100 µM (inactive) | > 100 µM (inactive) | > 100 µM (inactive) | > 100 µM (inactive)
Cn1c(-c2cccs2)cc(-c2cccs2)c1-c1cccs1 | > 100 µM (inactive) | > 100 µM (inactive) | > 96.6 µM (inactive) | 75 µM (inactive) | > 100 µM (inactive) | 39.2 µM (inactive) | 37.8 µM (inactive) | 34.6 µM (inactive) | 21.8 | > 100 µM (inactive) | 51.8 µM (inactive) | 35.7 µM (inactive) | 35.8 µM (inactive) | 55.2 µM (inactive) | 38.5 µM (inactive) | 78.7 µM (inactive) | > 100 µM (inactive) | > 100 µM (inactive) | 2.78 µM (inactive) | > 96.4 µM (inactive)
CCCCCCCCCCCCCCCCNc1ccn(C2CC(O)C(COC(c3ccccc3)(c3ccccc3)c3ccc(OC)cc3)O2)c(=O)n1 (stereo not given) | > 100 µM (inactive) | > 100 µM (inactive) | > 100 µM (inactive) | > 100 µM (inactive) | > 100 µM (inactive) | > 100 µM (inactive) | 83.6 µM (inactive) | 93.5 µM (inactive) | > 100 | > 100 µM (inactive) | > 100 µM (inactive) | > 100 µM (inactive) | > 100 µM (inactive) | > 100 µM (inactive) | 49.3 µM (inactive) | > 100 µM (inactive) | > 100 µM (inactive) | > 100 µM (inactive) | > 100 µM (inactive) | 20.9 µM (inactive)
C[C@]12CC[C@H](O)CC1=CC[C@@H]1[C@@H]2CC[C@]2(C)c3nc(Cl)ccc3C[C@@H]12 | 30.1 µM (inactive) | > 100 µM (inactive) | 25 µM (inactive) | 15.6 µM (inactive) | 26.1 µM (inactive) | 11.4 µM (inactive) | > 58.1 µM (inactive) | 47 µM (inactive) | 9.46 | 30.7 µM (inactive) | 5.78 µM (inactive) | 22.2 µM (inactive) | 57.1 µM (inactive) | 12.2 µM (inactive) | 8.45 µM (inactive) | 28.1 µM (inactive) | 74.3 µM (inactive) | 42.7 µM (inactive) | > 63.4 µM (inactive) | 7.52 µM (inactive)
CCCCCCc1cc2cc(C(=O)Nc3ccccc3F)c(=N)oc2cc1O | 11.9 µM (inactive) | 14.4 µM (inactive) | 6.97 µM (inactive) | 6.08 µM (inactive) | 5.36 µM (inactive) | 10.4 µM (inactive) | 18.7 µM (inactive) | 5.7 µM (inactive) | 3.93 | 14.3 µM (inactive) | 3.7 µM (inactive) | 4.01 µM (inactive) | 5.24 µM (inactive) | 7.29 µM (inactive) | 3.21 µM (inactive) | 7.62 µM (inactive) | 11.2 µM (inactive) | 12.5 µM (inactive) | 3.51 µM (inactive) | 4.27 µM (inactive)
Cc1ccc(S(=O)(=O)N/N=C2/CC[C@H](C(C)(C)C)C[C@@H]2C)cc1 | 17.1 µM (inactive) | 17.6 µM (inactive) | 16.4 µM (inactive) | 16.6 µM (inactive) | 16.2 µM (inactive) | 18 µM (inactive) | 18.9 µM (inactive) | 14.8 µM (inactive) | 16.6 | 13.8 µM (inactive) | 16.6 µM (inactive) | 22.6 µM (inactive) | 14.7 µM (inactive) | 17.1 µM (inactive) | 12.5 µM (inactive) | 17 µM (inactive) | 18.3 µM (inactive) | 18.4 µM (inactive) | 10.6 µM (inactive) | 13.7 µM (inactive)
COc1ccc(/C=c2/[nH]c(=O)/c(=C\c3ccc(OCc4ccccc4)cn3)[nH]c2=O)cc1 | 49.9 µM (inactive) | 33 µM (inactive) | 50.2 µM (inactive) | > 100 µM (inactive) | 45.3 µM (inactive) | > 100 µM (inactive) | > 100 µM (inactive) | 48 µM (inactive) | 38.6 | 43 µM (inactive) | 31.1 µM (inactive) | 47.1 µM (inactive) | 82.4 µM (inactive) | 19.8 µM (inactive) | 43.6 µM (inactive) | 63.8 µM (inactive) | > 100 µM (inactive) | 55 µM (inactive) | > 100 µM (inactive) | 0.889 µM (active)
C=C(CCOC)CCC1CCCCC(CN(C)C)C1=O (stereo not given) | > 100 µM (inactive) | > 100 µM (inactive) | > 100 µM (inactive) | > 100 µM (inactive) | > 100 µM (inactive) | > 100 µM (inactive) | > 100 µM (inactive) | > 100 µM (inactive) | > 100 | > 100 µM (inactive) | > 100 µM (inactive) | > 100 µM (inactive) | > 100 µM (inactive) | > 100 µM (inactive) | > 100 µM (inactive) | > 100 µM (inactive) | > 100 µM (inactive) | > 100 µM (inactive) | > 100 µM (inactive) | > 100 µM (inactive)
CCc1nc(N)nc(N)c1-c1ccc(N2CCNCC2)c([N+](=O)[O-])c1 | 5.2 µM (inactive) | 39.7 µM (inactive) | 3.09 µM (inactive) | 17.9 µM (inactive) | 45.9 µM (inactive) | 23.8 µM (inactive) | 11.5 µM (inactive) | 1.77 µM (inactive) | 35.7 | 19.4 µM (inactive) | 0.718 µM (active) | 12 µM (inactive) | 3.48 µM (inactive) | 4.85 µM (inactive) | 5.65 µM (inactive) | 2.11 µM (inactive) | 5.28 µM (inactive) | 91.2 µM (inactive) | 58.5 µM (inactive) | 78.7 µM (inactive)
